Source: publication PMC10272112 (Nature Communications, 2023)

Tests used:
α-Tubulin AcK40 = assay: α-tubulin acetylation detection by western blot, CBP-HA transfected HEK293T; type: cell-based; settings: for concentration showing substantial increase of α-Tubulin AcK40 acetylation: 7 h drug incubation; for α-Tubulin AcK40 acetylation level relative to control: HEK293T
Procedure: 0.2 × 10^6 HEK293T (ATCC: CRL-3216) cells were transfected with pcDNA 3.1-HA CBP plasmids (1 μg/well for the 6-well plate) by FuGENE. After 2 days, cells were treated with ACY-738, lipoic acid, and lipoamide for 7 h, then were washed by ice-cold PBS and lysed in Triton lysis buffer (50 mM Tris, pH 8.0, 150 mM NaCl, 1 mM EDTA, 0.1% TritonX-100 and complete EDTA-free protease inhibitors (Roche)) for analysis. To detect protein acetylation, 0.2 μM Trichostatin A and 5 mM nicotinamide were added to PBS for washing, and 10 μM trichostatin A, 10 mM nicotinamide, and 50 mM sodium butyrate were added to Triton lysis buffer.

NCOR2 (Homo sapiens) = assay: Chemoproteomic competition pulldown assay (co-competed NCoR partner); type: binding; settings: iQ, SW620 lysate
Procedure: (§1) To identify proteins directly bound by lipoic acid, we employed a chemoproteomic competition assay. Briefly, (R/S)-LA was immobilized on sepharose beads via an amidation reaction to form an affinity matrix (abbreviated as iL; Fig. 1a). This affinity matrix can be incubated with cell lysate to pull down potential LA or LM target proteins and identify these targets via bottom-up proteomics. In a competition assay, free LA or LM were incubated with lysate at different concentrations before pulling down and quantifying target proteins. […] (Fig. 1b, see “Methods” for details). […] The lysate buffer used in this assay contains 1 mM DTT to mimic the intracellular reductive milieu and to reduce lipoic acid and LM. […] Additional competition assays performed in lung adenocarcinoma cell A549 lysate also identified HDAC1, HDAC2, and HDAC6 as targets (Supplementary Fig. 1b). Amongst the three cell lines tested, HDACs were the only confidently identified targets across the 1500–3000 proteins quantified in these assays. […] We validated the results by analogous pulldown competition assays using two other affinity matrices prepared via the immobilization of either the HDAC inhibitor Quisinostat (iQ) and an analog of the class IIa HDAC inhibitor Bürli’s 31[14] (iC)[12]. We have previously shown that these affinity matrices specifically bind to the active sites of HDACs and have used them for HDACi selectivity profiling. Indeed, binding of (R/S)-LA and (R/S)-LM to HDAC1, HDAC2, HDAC3, HDAC6, and, to a lesser extent, HDAC8 was confirmed in these assays (Supplementary Fig. 1c, d). No binding to class IIa HDACs or the recently discovered common HDAC inhibitor off-target MBLAC2 was observed (Supplementary Fig. 1e)[12]. […] This observation might reflect electrostatic repulsion between the HDAC10 active site gate-keeper glutamic acid residues[15],[16] and the terminal carboxylic acid of LA.
(§2) To assess the degree of protein depletion from lysates by the affinity matrix, a second pulldown (PDPD) with fresh beads was performed using the unbound protein fraction from the vehicle control flow through. The beads were washed (1 × 1 mL of lysis buffer without inhibitors and only 0.4% Igepal, 2 × 2 mL of lysis buffer without inhibitors and only 0.2% Igepal), and captured proteins were denatured with 8 M urea buffer, alkylated with 55 mM chloroacetamide and digested with Trypsin according to standard procedures. The resulting peptides were desalted on a C18 filter plate (Sep-Pak® tC18 µElution Plate, Waters), vacuum dried, and stored at −20 °C until LC–MSMS measurement.
(§3) For the competition assays, relative binding was calculated based on the protein intensity ratio to the DMSO control for every single inhibitor concentration. EC50 values were derived from a four-parameter log-logistic regression with variable slope (constrain: bottom > 0). The obtained EC50 values were multiplied with a protein-dependent correction factor (cf), resulting in the apparent Kd value (Kd^app). The correction factor is determined by calculating the ratio of the protein intensity of two consecutive pulldowns of the vehicle control sample[13]. Targets of the inhibitors were annotated manually according to published procedures[12],[46],[47]. […] Additionally, the number of unique peptides and MSMS counts per condition were taken into account. Positive target binding across several independent experiments performed with different cell lysates further substantiated our confidence for a true positive drug-target binding event.

HMG20A = assay: Chemoproteomic competition pulldown assay (co-competed CoREST partner); type: binding
Procedure: as §1, §2, §3

NCOR1 (Homo sapiens) = assay: Chemoproteomic competition pulldown assay (co-competed NCoR partner); type: binding; settings: iQ, SW620 lysate
Sequence of NCOR1 (Homo sapiens) (O15379 whole entry): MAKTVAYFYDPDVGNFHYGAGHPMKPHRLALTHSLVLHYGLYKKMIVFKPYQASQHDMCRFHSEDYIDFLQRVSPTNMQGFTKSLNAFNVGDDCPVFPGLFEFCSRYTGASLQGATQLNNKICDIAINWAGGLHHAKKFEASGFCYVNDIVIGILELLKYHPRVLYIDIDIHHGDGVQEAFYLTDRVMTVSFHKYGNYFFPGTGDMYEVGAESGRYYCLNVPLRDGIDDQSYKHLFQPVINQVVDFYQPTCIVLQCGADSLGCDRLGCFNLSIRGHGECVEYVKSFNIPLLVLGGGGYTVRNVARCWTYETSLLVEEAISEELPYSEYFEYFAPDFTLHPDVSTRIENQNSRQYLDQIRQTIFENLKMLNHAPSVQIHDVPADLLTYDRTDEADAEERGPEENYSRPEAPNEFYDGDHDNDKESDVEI
Sequence of NCOR1 (Homo sapiens) (O75376 whole entry, further chain): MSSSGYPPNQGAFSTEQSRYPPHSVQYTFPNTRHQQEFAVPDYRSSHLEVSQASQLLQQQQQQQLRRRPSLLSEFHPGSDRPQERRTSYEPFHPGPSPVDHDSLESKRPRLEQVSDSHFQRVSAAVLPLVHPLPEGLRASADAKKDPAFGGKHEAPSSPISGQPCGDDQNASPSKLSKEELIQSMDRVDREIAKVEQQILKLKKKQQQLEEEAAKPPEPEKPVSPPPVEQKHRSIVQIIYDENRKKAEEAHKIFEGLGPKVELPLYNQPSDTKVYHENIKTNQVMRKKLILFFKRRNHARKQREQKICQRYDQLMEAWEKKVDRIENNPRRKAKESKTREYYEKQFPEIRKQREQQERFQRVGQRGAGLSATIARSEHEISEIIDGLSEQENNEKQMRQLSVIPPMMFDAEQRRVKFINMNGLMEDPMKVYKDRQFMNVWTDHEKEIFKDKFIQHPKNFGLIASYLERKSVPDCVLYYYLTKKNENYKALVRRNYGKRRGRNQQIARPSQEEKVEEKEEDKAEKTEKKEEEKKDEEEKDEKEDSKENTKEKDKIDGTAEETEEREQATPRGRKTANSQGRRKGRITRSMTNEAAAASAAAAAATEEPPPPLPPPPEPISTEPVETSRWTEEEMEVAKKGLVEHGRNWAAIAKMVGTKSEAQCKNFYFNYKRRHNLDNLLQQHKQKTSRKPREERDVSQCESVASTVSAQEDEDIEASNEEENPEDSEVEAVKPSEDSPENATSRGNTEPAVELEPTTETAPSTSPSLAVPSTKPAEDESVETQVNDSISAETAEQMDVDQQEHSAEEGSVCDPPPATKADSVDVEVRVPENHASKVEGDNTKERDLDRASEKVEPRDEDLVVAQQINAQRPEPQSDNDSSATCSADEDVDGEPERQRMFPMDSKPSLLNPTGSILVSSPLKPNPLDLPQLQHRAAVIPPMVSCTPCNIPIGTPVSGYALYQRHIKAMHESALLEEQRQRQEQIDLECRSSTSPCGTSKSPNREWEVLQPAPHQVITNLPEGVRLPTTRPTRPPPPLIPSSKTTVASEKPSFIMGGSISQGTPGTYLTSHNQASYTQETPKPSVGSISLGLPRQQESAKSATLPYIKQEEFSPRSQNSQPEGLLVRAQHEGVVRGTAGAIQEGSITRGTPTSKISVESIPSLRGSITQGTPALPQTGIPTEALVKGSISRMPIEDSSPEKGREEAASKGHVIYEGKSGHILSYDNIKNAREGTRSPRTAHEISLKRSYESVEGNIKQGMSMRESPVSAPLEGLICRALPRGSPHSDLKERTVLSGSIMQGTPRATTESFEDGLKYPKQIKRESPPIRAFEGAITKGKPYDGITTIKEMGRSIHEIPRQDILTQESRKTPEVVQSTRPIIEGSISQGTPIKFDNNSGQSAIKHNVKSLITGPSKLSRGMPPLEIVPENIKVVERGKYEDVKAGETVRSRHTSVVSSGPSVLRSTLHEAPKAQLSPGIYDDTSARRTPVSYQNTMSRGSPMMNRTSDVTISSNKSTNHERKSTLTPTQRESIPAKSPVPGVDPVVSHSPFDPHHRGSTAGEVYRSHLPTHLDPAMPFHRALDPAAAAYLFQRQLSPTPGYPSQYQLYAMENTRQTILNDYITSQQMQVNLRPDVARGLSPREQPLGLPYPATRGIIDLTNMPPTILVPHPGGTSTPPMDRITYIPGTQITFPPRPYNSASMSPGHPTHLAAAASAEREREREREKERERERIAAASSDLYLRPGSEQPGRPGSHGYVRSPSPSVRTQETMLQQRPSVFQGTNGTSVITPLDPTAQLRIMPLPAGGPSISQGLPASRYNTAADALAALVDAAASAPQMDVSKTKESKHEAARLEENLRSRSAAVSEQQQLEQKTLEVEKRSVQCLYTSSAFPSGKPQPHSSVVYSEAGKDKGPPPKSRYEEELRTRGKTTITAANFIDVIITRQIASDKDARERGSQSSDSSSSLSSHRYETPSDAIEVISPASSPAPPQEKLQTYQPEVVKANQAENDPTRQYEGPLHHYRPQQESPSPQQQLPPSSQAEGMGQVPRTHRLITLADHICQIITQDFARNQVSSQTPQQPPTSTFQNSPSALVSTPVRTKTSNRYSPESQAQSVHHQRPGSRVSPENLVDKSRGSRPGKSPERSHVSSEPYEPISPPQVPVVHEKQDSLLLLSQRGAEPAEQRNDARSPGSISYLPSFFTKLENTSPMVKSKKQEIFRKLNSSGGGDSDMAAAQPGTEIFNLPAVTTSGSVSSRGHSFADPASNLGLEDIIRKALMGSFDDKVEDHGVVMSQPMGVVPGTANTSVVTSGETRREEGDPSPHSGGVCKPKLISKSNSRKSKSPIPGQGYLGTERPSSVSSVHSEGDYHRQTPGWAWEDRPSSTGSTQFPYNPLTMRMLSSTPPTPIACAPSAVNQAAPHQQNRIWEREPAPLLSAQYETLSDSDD
Procedure: as §1, §2, §3

DNTTIP1 = assay: Chemoproteomic competition pulldown assay (co-competed MiDAC partner); type: binding
Procedure: as §1, §2, §3

ELMSAN1 = assay: as above; type: binding
Procedure: as §1, §2, §3

[1] = iQ, SW620 lysate, log10 M -3.52288
[2] = iQ, SW620 lysate, log10 M -4.52288
[3] = iQ, SW620 lysate, log10 M -5.52288
[4] = iQ, SW620 lysate, log10 M -6.52288
[5] = iL, MV4-11 lysate, log10 M -3.52288
[6] = iL, MV4-11 lysate, log10 M -4.52288
[7] = iL, MV4-11 lysate, log10 M -5.52288
[8] = iL, MV4-11 lysate, log10 M -6.52288

## O=C(O)CCCCC1CCSS1 (racemic) [(R/S)-LA, (R/S)-lipoic acid]
α-Tubulin AcK40
  concentration showing substantial increase of α-Tubulin AcK40 acetylation: 50 µM
α-Tubulin AcK40; 1 mM
  α-Tubulin AcK40 acetylation level relative to control: 3.4 fold
α-Tubulin AcK40; .5 (mM)
  α-Tubulin AcK40 acetylation level relative to control: 2 fold
NCOR2 (Homo sapiens); log10 M -3.52288
  relative binding vs DMSO: 0
NCOR2 (Homo sapiens); log10 M -4
  relative binding vs DMSO: 0
NCOR2 (Homo sapiens); log10 M -4.52288
  relative binding vs DMSO: 0.568
NCOR2 (Homo sapiens); log10 M -5
  relative binding vs DMSO: 0.5133
NCOR2 (Homo sapiens); log10 M -5.52288
  relative binding vs DMSO: 0.9883
NCOR2 (Homo sapiens); log10 M -6
  relative binding vs DMSO: 0.9231
NCOR2 (Homo sapiens); log10 M -6.52288
  relative binding vs DMSO: 1.028
NCOR2 (Homo sapiens); log10 M -7
  relative binding vs DMSO: 1.032
HMG20A; iL, A549 lysate, log10 M -4
  relative binding vs DMSO: 0
HMG20A; iL, A549 lysate, log10 M -4.52288
  relative binding vs DMSO: 0
HMG20A; iL, A549 lysate, log10 M -5
  relative binding vs DMSO: 0
HMG20A; iL, A549 lysate, log10 M -5.52288
  relative binding vs DMSO: 0.4211
HMG20A; iL, A549 lysate, log10 M -6
  relative binding vs DMSO: 0.8299
HMG20A; iL, A549 lysate, log10 M -6.52288
  relative binding vs DMSO: 0.9993
HMG20A; iL, A549 lysate, log10 M -7.52288
  relative binding vs DMSO: 1.185
HMG20A; iL, A549 lysate, log10 M -8
  relative binding vs DMSO: 1.321
HMG20A; iL, A549 lysate, log10 M -8.52288
  relative binding vs DMSO: 1.259
HMG20A; [1]
  relative binding vs DMSO: 0.2638
HMG20A; iQ, SW620 lysate, log10 M -4
  relative binding vs DMSO: 0.07541
HMG20A; [2]
  relative binding vs DMSO: 0.5511
HMG20A; iQ, SW620 lysate, log10 M -5
  relative binding vs DMSO: 0.4652
HMG20A; [3]
  relative binding vs DMSO: 0.8795
HMG20A; iQ, SW620 lysate, log10 M -6
  relative binding vs DMSO: 0.793
HMG20A; [4]
  relative binding vs DMSO: 1.133
HMG20A; iQ, SW620 lysate, log10 M -7
  relative binding vs DMSO: 0.8444

## NC(=O)CCCCC1CCSS1 (racemic) [(R/S)-LM, (R/S)-lipoamide]
α-Tubulin AcK40
  concentration showing substantial increase of α-Tubulin AcK40 acetylation: 50 µM
α-Tubulin AcK40; 1 mM
  α-Tubulin AcK40 acetylation level relative to control: 4.0 fold
α-Tubulin AcK40; 1 mM, listed as LM
  α-Tubulin AcK40 acetylation level relative to control: 4 fold
α-Tubulin AcK40; .5 (mM)
  α-Tubulin AcK40 acetylation level relative to control: 2.5 fold
NCOR1 (Homo sapiens); log10 M -3.52288
  relative binding vs DMSO: 0.2142
NCOR1 (Homo sapiens); log10 M -4
  relative binding vs DMSO: 0.3668
NCOR1 (Homo sapiens); log10 M -4.52288
  relative binding vs DMSO: 0.5065
NCOR1 (Homo sapiens); log10 M -5
  relative binding vs DMSO: 0.4972
NCOR1 (Homo sapiens); log10 M -5.52288
  relative binding vs DMSO: 0.5554
NCOR1 (Homo sapiens); log10 M -6
  relative binding vs DMSO: 0.6839
NCOR1 (Homo sapiens); log10 M -6.52288
  relative binding vs DMSO: 0.8502
NCOR1 (Homo sapiens); log10 M -7
  relative binding vs DMSO: 0.9007
HMG20A; [5]
  relative binding vs DMSO: 0.1398
HMG20A; iL, MV4-11 lysate, log10 M -4
  relative binding vs DMSO: 0.1277
HMG20A; [6]
  relative binding vs DMSO: 0.1925
HMG20A; iL, MV4-11 lysate, log10 M -5
  relative binding vs DMSO: 0.5136
HMG20A; [7]
  relative binding vs DMSO: 0.6563
HMG20A; iL, MV4-11 lysate, log10 M -6
  relative binding vs DMSO: 0.8243
HMG20A; [8]
  relative binding vs DMSO: 0.9555
HMG20A; iL, MV4-11 lysate, log10 M -7
  relative binding vs DMSO: 1.012
HMG20A; [1]
  relative binding vs DMSO: 0.03313
HMG20A; iQ, SW620 lysate, log10 M -4
  relative binding vs DMSO: 0.1846
HMG20A; [2]
  relative binding vs DMSO: 0.4151
HMG20A; iQ, SW620 lysate, log10 M -5
  relative binding vs DMSO: 0.6118
HMG20A; [3]
  relative binding vs DMSO: 0.969
HMG20A; iQ, SW620 lysate, log10 M -6
  relative binding vs DMSO: 0.8792
HMG20A; [4]
  relative binding vs DMSO: 0.8032
HMG20A; iQ, SW620 lysate, log10 M -7
  relative binding vs DMSO: 1.062
DNTTIP1; [5]
  relative binding vs DMSO: 0.05556
DNTTIP1; iL, MV4-11 lysate, log10 M -4
  relative binding vs DMSO: 0.04853
DNTTIP1; [6]
  relative binding vs DMSO: 0.1384
DNTTIP1; iL, MV4-11 lysate, log10 M -5
  relative binding vs DMSO: 0.4584
DNTTIP1; [7]
  relative binding vs DMSO: 0.6943
DNTTIP1; iL, MV4-11 lysate, log10 M -6
  relative binding vs DMSO: 0.6679
DNTTIP1; [8]
  relative binding vs DMSO: 0.7085
DNTTIP1; iL, MV4-11 lysate, log10 M -7
  relative binding vs DMSO: 0.9632
DNTTIP1; [1]
  relative binding vs DMSO: 0.382
DNTTIP1; iQ, SW620 lysate, log10 M -4
  relative binding vs DMSO: 0.3895
DNTTIP1; [2]
  relative binding vs DMSO: 0.5292
DNTTIP1; iQ, SW620 lysate, log10 M -5
  relative binding vs DMSO: 0.6889
DNTTIP1; [3]
  relative binding vs DMSO: 0.738
DNTTIP1; iQ, SW620 lysate, log10 M -6
  relative binding vs DMSO: 0.858
DNTTIP1; [4]
  relative binding vs DMSO: 0.8975
DNTTIP1; iQ, SW620 lysate, log10 M -7
  relative binding vs DMSO: 0.8297
ELMSAN1; [5]
  relative binding vs DMSO: 0.05487
ELMSAN1; iL, MV4-11 lysate, log10 M -4
  relative binding vs DMSO: 0.06564
ELMSAN1; [6]
  relative binding vs DMSO: 0.1508
ELMSAN1; iL, MV4-11 lysate, log10 M -5
  relative binding vs DMSO: 0.5058
ELMSAN1; [7]
  relative binding vs DMSO: 0.6836
ELMSAN1; iL, MV4-11 lysate, log10 M -6
  relative binding vs DMSO: 0.7193
ELMSAN1; [8]
  relative binding vs DMSO: 0.7931
ELMSAN1; iL, MV4-11 lysate, log10 M -7
  relative binding vs DMSO: 0.9008
ELMSAN1; [1]
  relative binding vs DMSO: 0
ELMSAN1; iQ, SW620 lysate, log10 M -4
  relative binding vs DMSO: 0
ELMSAN1; [2]
  relative binding vs DMSO: 0.1474
ELMSAN1; iQ, SW620 lysate, log10 M -5
  relative binding vs DMSO: 0.6579
ELMSAN1; [3]
  relative binding vs DMSO: 0.8569
ELMSAN1; iQ, SW620 lysate, log10 M -6
  relative binding vs DMSO: 0.8861
ELMSAN1; [4]
  relative binding vs DMSO: 0.626
ELMSAN1; iQ, SW620 lysate, log10 M -7
  relative binding vs DMSO: 0.8038
